# Experimental data: paper PMC12164026, “Plant-derived nodule-specific cysteine-rich peptides as potent antifungal agents against Cryptococcus neoformans: mechanisms of action, chimeric peptide enhancement, and immunomodulatory effects” (Current Research in Microbial Sciences, 2025)
# Where two headings read alike, the source gives them in different places. Peptide text beside a SMILES is read from it.
# Tests used:
# C. neoformans cells = test: Effect of X1-NCR247C and calcofluor white on CFU; assay type: cell-based, Cryptococcus neoformans
# Protocol: To assess the effect of X1-NCR247C peptide and calcofluor white, C. neoformans cells were subjected to different treatments. […] For staining, cells were treated with calcofluor white at 2.5 µg/mL for the same duration. As a control, cells were incubated only with calcofluor white for 20 min.
# For combined treatment, cells were first exposed to calcofluor white (2.5 µg/mL) for 5 min, followed by the addition of X1-NCR247C (0.39 µM), and the incubation continued for 15 additional minutes. Following treatment, cells were washed once with sterile distilled water to remove residual peptide and dye. Serial 10-, 100-, 1000-, and 10,000-fold dilutions were prepared, and 50 µL from each dilution was plated onto solid YPD medium in triplicate. After 48 h of incubation at 30 °C, colony-forming units were counted to determine cell viability under each condition.
# [1] = test system: Cryptococcus neoformans IFM 5844; test: microbe, parasite or virus in culture; assay type: cell-based; details: IFM 5844, 48 h; read-out: MIC
# Protocol: (§1) The susceptibility of Cryptococcus neoformans IFM 5844 to 20 peptides (Supplementary Table 1) was tested in a widely used synthetic medium to cultivate yeasts (YNB) and in a serum-free medium what is able to support the proliferation of macrophage cells (X-VIVO).
# YNB medium: five-fold diluted Difco Yeast Nitrogen Base w/o Amino Acids medium (Becton, Dickinson and Company, Sparks, MD, USA) supplemented with 1 % dextrose
# (§2) The minimal inhibitory concentration (MIC) of each peptide was determined by using micro-dilution assay. The C. neoformans suspensions were adjusted to 5 × 10^4 cells/mL concentration in either YNB or X-VIVO medium. A 96-well microtiter plate was prepared by adding 95 µL suspension per well followed by 5 µL of serially two-fold diluted peptide solutions achieving a final volume of 100 µl. The concentration of the peptides ranged from 25 to 0.39 µM. For control samples, 5 µL pure medium was added to the yeast cell suspension instead of peptides. Plates were incubated at 37 °C for 48 h in X-VIVO medium and 30 °C for 72 h in YNB medium. After incubation, optical density was measured at 620 nm using a SPECTROstar Nano plate reader (BMG LabTech, Offenburg, Germany). […] The experiments were carried out in three independent biological replicates.
# [2] = test system: Cryptococcus neoformans IFM 5844; assay type: cell-based; details: IFM 5844, 48 h
# Protocol: as §1
# X-VIVO medium: half-diluted X-VIVO™ 15 cell culture medium (Lonza, Verviers, Belgium).
# as §2
# [3] = test system: C. neoformans IFM 5844 intact cells; test: Susceptibility of intact cells to peptide, CFU counts; assay type: cell-based, Cryptococcus neoformans; details: 30 min, YNB + 0.8 M sorbitol
# Protocol: The C. neoformans IFM 5844 strain was grown in YPD nutrient solution at 30 °C for 12 h by vigorous shaking until the exponential phase was reached (about 5 × 10^7 cells/mL).
# To assess peptide susceptibility, 2 × 10^6 protoplasts and the same number of intact cells were treated separately with X1-NCR247C peptide at 0.78 or 0.39 µM in YNB supplemented with 0.8 M sorbitol for 30 min at 30 °C. […] Fifty microliters from each dilution were mixed into 2 mL of top-agar (0.8 M sorbitol with 1 % agar) and spread onto the surface of YPD solid medium supplemented with 0.8 M sorbitol. Plates were incubated for 3 days at 30 °C, after which colony forming units were counted to determine the survival rate of peptide-treated cells and protoplasts.
# J774.2 mouse macrophages = test: Phagocytosis of peptide-treated C. neoformans cells by macrophages, imaging flow cytometry; assay type: cell-based; details: yeast cells pre-treated with 3.12 µM peptide for 15 min, 5:1 yeast-to-macrophage ratio
# Protocol: C. neoformans was cultivated for 16 h at 30 °C, collected by centrifugation (5000 g, 5 min), and washed twice with sterile distilled water and once with PBS. […] After 15 min of incubation at 30 °C, the peptide-containing solution was removed by centrifugation, and the C. neoformans cells were washed with PBS and re-suspended in 100 µL PBS. Untreated C. neoformans cells served as controls.
# To label C. neoformans cells, the suspension was supplemented with 11 µL of 1 M Na₂CO₃ (pH 10) and 2 µL of Alexa Fluor 488-labelled-concanavalin (Invitrogen, Waltham, MA, US), followed by incubation at room temperature for 30 min, protected from light. After PBS washing, the cell density was determined using a Bürker chamber and adjusted to the required concentration. […]
# Following incubation, cells from each technical replicate were collected by centrifugation (200 g, 10 min), washed once with PBS, and re-suspended in 100 µL PBS buffer for detection. A random selection of 1000 macrophages was evaluated in each experimental sample, and the proportion of macrophages harboring fluorescently labelled C. neoformans cells was quantified utilizing imaging flow cytometry (FlowSight®, Amnis-EMD Millipore) equipped with a 488-nm excitation laser, with data analysis conducted through the IDEAS software platform.
# [4] = test system: C. neoformans IFM 5844 cells; test: Cell membrane permeability, calcein-AM assay by flow cytometry; assay type: cell-based, Cryptococcus neoformans; details: half-MIC, 2 h, 30 °C, YNB
# Protocol: The effect of the peptides on the cell membrane permeability of C. neoformans IFM 5844 cells was checked by flow cytometry with calcein-AM assay ([Olson, et al., 2001]). Calcein-acetoxymethyl ester (calcein-AM) is a membrane-permeable live-cell dye that, upon entering the cell, is cleaved by intracellular esterases, converting it into calcein, a membrane-impermeable fluorescent marker. The assay was carried out by suspending a total of 1 × 10^7 cells in 100 µl YNB medium containing 20 µg/mL indomethacin (Sigma-Aldrich, Saint Louis, MO, USA) and incubating them at 30 °C for 30 min to inhibit calcein transporters. Following this pre-treatment, membrane-permeable calcein-AM (Invitrogen, Waltham, MA, USA) was added to a final concentration of 5 µg/mL, and the samples were incubated at 30 °C for 3 h allowing the calcein-AM to enter the cells where esterases converted it to fluorescent calcein. After incubation, cells were washed twice with sterile distilled water and subsequently exposed to peptides at half-MIC concentrations in YNB medium for 2 h at 30 °C. Following peptide treatment, cells were washed twice with sterile distilled water, and fluorescence intensity was measured using a FlowSight® flow cytometer (Amnis-EMD Millipore) equipped with a 488-nm excitation laser. Intact cells stained with calcein-AM but not exposed to peptides served as controls. To ensure statistical reliability, four independent experiments were conducted, and fluorescence intensity was recorded from 10,000 cells per sample during each experiment.
structure (smiles),measurement,setting,value
CSCC[C@H](NC(=O)[C@H](CCCCN)NC(=O)[C@H](Cc1ccccc1)NC(=O)[C@H](CC(N)=O)NC(=O)[C@H](CC(C)C)NC(=O)[C@@H]1CCCN1C(=O)[C@@H](N)CCCNC(=N)N)C(=O)N[C@@H](CC(C)C)C(=O)N[C@@H](CCCNC(=N)N)C(=O)N[C@@H](Cc1ccccc1)C(=O)N[C@@H](Cc1c[nH]c2ccccc12)C(=O)NCC(=O)N[C@@H](CCC(N)=O)C(=O)N[C@@H](CCC(N)=O)C(=O)N[C@@H](CCC(N)=O)C(=O)N[C@@H](CS)C(=O)N[C@@H](CCCNC(=N)N)C(=O)N[C@@H](CCCNC(=N)N)C(=O)N1CCC[C@H]1C(=O)N[C@@H](CC(C)C)C(=O)N[C@@H](Cc1ccc(O)cc1)C(=O)N[C@@H](CS)C(=O)N[C@@H](CCCNC(=N)N)C(=O)N[C@@H](CCCNC(=N)N)C(=O)N[C@@H](CCCNC(=N)N)C(N)=O [X1-NCR247C] (H-RPLNFKMLRFWGQQQCRRPLYCRRR-NH2; N-terminus assumed),effect on CFU counts,"C. neoformans cells; calcofluor white (2.5 µg/mL) pre-treatment 5 min, then peptide 0.39 µM for 15 min",no reduction in the number of colony-forming units was observed
same,effect on CFU counts,"C. neoformans cells; peptide 0.39 µM (MIC) alone, 20 min, YNB, p ≤ 0.0001",significantly decrease cell viability
same,MIC,[1],1.56 µM
same,MIC,[2],3.12 µM
same,CFU count reduction relative to untreated control,[3]; 0.39 µM,97%
same,CFU count reduction relative to untreated control,[3]; 0.78 µM,99%
same,percentage of phagocytic macrophages,"J774.2 mouse macrophages; 30 min post-infection, untreated control 5.12 %",7.95%
same,percentage of phagocytic macrophages,"J774.2 mouse macrophages; 60 min post-infection, untreated control 6.95 %",33.95%
same,calcein leakage / membrane permeability disruption,[4],slightly weaker effect
